Like-named read-outs stand apart in the source and are kept apart here.
How the values were obtained:
ZIKV NS2B-NS3pro = ZIKV NS2B-NS3pro (Zika virus, UniProt A0A024B7W1, C1582S/C1645S/R1467A/R1531G); test: ZIKV NS2B-NS3pro inhibitory assay with fluorogenic substrate Bz-Nle-Lys-Lys-Arg-AMC; assay type: biochemical; conditions: for % ZIKV NS2B/NS3pro Inhibition [Enzyme] = 0.2 nM / % ZIKV NS2B/NS3pro Inhibition [Enzyme] = 2 nM: compound 25 µM (close to IC50), CHAPS 1 mM; for % ZIKV NS2B/NS3pro Inhibition (100 µM) 0.001% Triton / % ZIKV NS2B/NS3pro Inhibition (100 µM) 0.01% Triton / % ZIKV NS2B/NS3pro Inhibition (100 µM) BSA / % ZIKV NS2B/NS3pro Inhibition (100 µM) With Preincubation / % ZIKV NS2B/NS3pro Inhibition (100 µM) Without Preincubation: compound 100 µM; for % ZIKV NS2B/NS3pro Inhibition (100 µM) 0.001% Triton: 0.001% Triton X-100, no Tween-20; for % ZIKV NS2B/NS3pro Inhibition (100 µM) 0.001% Triton / % ZIKV NS2B/NS3pro Inhibition (100 µM) 0.01% Triton: 10 min preincubation; for % ZIKV NS2B/NS3pro Inhibition (100 µM) 0.01% Triton: 0.01% Triton X-100, no Tween-20; for % ZIKV NS2B/NS3pro Inhibition (100 µM) BSA: 10 min pre-incubation with BSA 1 mg/mL before enzyme; for % ZIKV NS2B/NS3pro Inhibition (100 µM) With Preincubation: 10 min preincubation with enzyme; for % ZIKV NS2B/NS3pro Inhibition (100 µM) Without Preincubation: no preincubation; for Hill Slope Replica 1 / Hill Slope Replica 2: from dose-response curve
[1] = Solubility in cruzain assay buffer; assay type: physicochemical; conditions: sodium acetate 0.1 M pH 5.5, β-mercaptoethanol 10 mM
[2] = Cytotoxicity MTT assay (CC50); conditions: African green monkey, Vero (ATCC CCL-81) cells
Experimental: (§1) The Vero (ATCC® CCL-81™) cell line was used for the cytotoxicity assays and antiviral activity evaluation against ZIKV. Cells were cultured in Eagle’s minimum essential media (MEM) (Cultilab, Campinas, Brazil). The media was supplemented with 5% fetal bovine serum (FBS) (Cultilab, Brazil), in addition to 100 IU/mL penicillin (Cellofarm, Rio De Janeiro, Brazil), 100 μg/mL streptomycin (Merck, Darmstadt, Germany), and 0.25 μg/mL amphotericin B (Cultilab, Brazil).
(§2) Cells were seeded in 96-well microplates (4.0 × 10^4 cells per well) and incubated at 37 °C and 5% CO2 for 24 h. Then, 200 µL of MEM with 1% FBS containing a serial dilution of the compounds (100 to 12.5 µM) was added. As vehicle control, a serial dilution of DMSO was used. After 72 h of incubation under the same conditions, 100 μL of 3-(4,5-dimethylthiazol-2-yl)-2,5-diphenyltetrazolium bromide (MTT; ThermoFischer Scientific, Waltham, MA, USA) [76] diluted in MEM (0.5 mg/mL) was added to each well and incubated for 3 h. The media was removed, and 100 μL of DMSO was added to each well to solubilize formazan crystals and shaken for 20 min. The absorbance was read at 570 nm using a spectrophotometer (VersaMax, Molecular Devices, San Jose, CA, USA). The percentages of inhibition of cell viability were calculated as the ratio between the absorbance of the compound-treated cells and cells with only the vehicle. […] Linear regression (LR) was used for the analysis, considering results with r^2 > 0.9. All conditions were tested in triplicate and one independent assay (n = 3 data points).

[3] = tested on: Vero (ATCC CCL-81) cell line; test: Cytotoxicity MTT assay (CC50); conditions: Vero cells
Experimental: as §1, §2

[4] = tested on: Vero (ATCC CCL-81) cell line; parameters: method as in Serafim et al. [64]; conditions: comparison control; ref Serafim et al. [64]; cited from earlier work
ZIKV (PE243) = tested on: ZIKV (PE243); parameters: method as in Serafim et al. [64]; conditions: comparison control, ref Serafim et al. [64]; cited from earlier work

With `O=C(Nc1nc2ccccc2[nH]1)c1ccccc1NS(=O)(=O)c1ccc(Cl)cc1` [Compound 6] the “% ZIKV NS2B/NS3pro Inhibition [Enzyme] = 0.2 nM” value (ZIKV NS2B-NS3pro; enzyme 0.2 nM) was 99 ± 0.4%, the “% ZIKV NS2B/NS3pro Inhibition [Enzyme] = 2 nM” value (ZIKV NS2B-NS3pro) was 66 ± 21% and the “% ZIKV NS2B/NS3pro Inhibition (100 µM) 0.001% Triton” value (ZIKV NS2B-NS3pro) was 89 ± 6%. The “% ZIKV NS2B/NS3pro Inhibition (100 µM) 0.01% Triton” value (ZIKV NS2B-NS3pro) was 7 ± 9%, the “% ZIKV NS2B/NS3pro Inhibition (100 µM) BSA” value (ZIKV NS2B-NS3pro) was 55 ± 20% and the “% ZIKV NS2B/NS3pro Inhibition (100 µM) With Preincubation” value (ZIKV NS2B-NS3pro; 0.005% Tween-20, enzyme 0.2 nM) was 100 ± 0%. For the same molecule, the “% ZIKV NS2B/NS3pro Inhibition (100 µM) Without Preincubation” value (ZIKV NS2B-NS3pro; 0.005% Tween-20) was 99 ± 2%, the “Hill Slope Replica 1” value (ZIKV NS2B-NS3pro) was 6.697 and the “Hill Slope Replica 2” value (ZIKV NS2B-NS3pro) was 4.362. For the same molecule, the “solubility in the cruzain assay buffer” value [1] was “insoluble”, the CC50 at 72 h [2] was 38.4 ± 2.18 µM and the “Cell viability as percentage of cell control (mean absorbance / CELL)” value ([3]; compound 12.5 µM) was 63.7676. For the same molecule, the “Cell viability as percentage of cell control (mean absorbance / CELL)” value ([3]; compound 25 µM) was 61.7079, the “Cell viability as percentage of cell control (mean absorbance / CELL)” value ([3]; compound 50 µM) was 41.6329 and the “Cell viability as percentage of cell control (mean absorbance / CELL)” value ([3]; compound 100 µM) was 48.6633.

For `NC(=O)c1ncn([C@@H]2O[C@H](CO)[C@@H](O)[C@H]2O)n1` [Ribavirin], the CC50 [4] is listed as > 100 µM and the EC50 (ZIKV (PE243)) is listed as 4.1 ± 0.35 µM.

In the case of `Cc1cc(C(=O)c2ccccc2NS(=O)(=O)c2ccc(F)cc2)nn1-c1ccccc1` [Compound 13], the IC50 (ZIKV NS2B-NS3pro; 0.005% Tween-20, enzyme 0.2 nM, substrate 44 µM, read-out: ZIKV NS2B/NS3pro IC50) is reported as 28 ± 1 µM, the “% ZIKV NS2B/NS3pro Inhibition [Enzyme] = 0.2 nM” value (ZIKV NS2B-NS3pro; enzyme 0.2 nM) is reported as 43 ± 0.1% and the “% ZIKV NS2B/NS3pro Inhibition [Enzyme] = 2 nM” value (ZIKV NS2B-NS3pro) is reported as 26 ± 10%. The “% ZIKV NS2B/NS3pro Inhibition (100 µM) 0.001% Triton” value (ZIKV NS2B-NS3pro) was 100 ± 0%, the “% ZIKV NS2B/NS3pro Inhibition (100 µM) 0.01% Triton” value (ZIKV NS2B-NS3pro) was 45 ± 9% and the “% ZIKV NS2B/NS3pro Inhibition (100 µM) BSA” value (ZIKV NS2B-NS3pro) was 57 ± 15%. The “% ZIKV NS2B/NS3pro Inhibition (100 µM) With Preincubation” value (ZIKV NS2B-NS3pro; 0.005% Tween-20, enzyme 0.2 nM) was 95 ± 2%, the “% ZIKV NS2B/NS3pro Inhibition (100 µM) Without Preincubation” value (ZIKV NS2B-NS3pro; 0.005% Tween-20) was 100 ± 1% and the “Hill Slope Replica 1” value (ZIKV NS2B-NS3pro) was 5.057. The “Hill Slope Replica 2” value (ZIKV NS2B-NS3pro) was 5.334, the IC50 (ZIKV NS2B-NS3pro; one value per independent assay (two curves per compound), read-out: IC50 of the individual curves for NS2B-NS3pro inhibitors (Figure 3)) was 29 µM and the “solubility in the cruzain assay buffer” value [1] was “insoluble”. The CC50 at 72 h [2] was < 12.5 µM, the “Cell viability as percentage of cell control (mean absorbance / CELL)” value ([3]; compound 12.5 µM) was 41.6898 and the “Cell viability as percentage of cell control (mean absorbance / CELL)” value ([3]; compound 25 µM) was 25.5093. The “Cell viability as percentage of cell control (mean absorbance / CELL)” value ([3]; compound 50 µM) was 21.6435 and the “Cell viability as percentage of cell control (mean absorbance / CELL)” value ([3]; compound 100 µM) was 12.8704.

From PMC10537087, “Evaluating Known Zika Virus NS2B-NS3 Protease Inhibitor Scaffolds via In Silico Screening and Biochemical Assays” (Pharmaceuticals, 2023)
